Test results from patent US11738007B2, “Treatment of glaucoma using endothelin receptor antagonists” (Perfuse Therapeutics, Inc., priority 2019, dated 2023).

Test: Pharmacokinetics after intravitreal administration in the rabbit
Type: in vivo, rabbits (Oryctolagus cuniculus)
Settings: plasma and ocular tissues, FIG. 9A-9D
Method: To determine the pharmacokinetic and safety properties of Edonentan following intravitreal administration in the rabbit, rabbits (Oryctolagus cuniculus) received bilateral intravitreal injections (20 μL injection volume/eye). Following the injections, animals were tranquilized with a ketamine/xylazine cocktail, and then the animals were euthanized with an overdose of sodium pentobarbital (Euthasol). Animals designated for the pharmacokinetic analysis were euthanized at different time points (e.g. 12, 16, 24, 36 and 48 hours). At least 1.0 mL of whole blood was drawn from the marginal ear vein or cardiac puncture (terminal bleed only) into K2EDTA tubes for plasma collection and processed for analytical analysis.
Immediately following euthanasia, the eyes was enucleated. Aqueous humor from both eyes was removed via syringe and snap frozen for analysis. Eyes were dissected when frozen to isolate various ocular tissues and minimize drug diffusion to adjacent tissues. Tissues from left and right eyes were collected in separate vials for analysis. List of tissues collected include plasma and aqueous humor, iris/ciliary body (ICB), retina, vitreous humor and RPE/choroid. The pharmacokinetic properties of intravitreally delivered Edonentan in rabbits are shown in FIG. 9A, FIG. 9B, FIG. 9C and FIG. 9D.

Cc1onc(NS(=O)(=O)c2ccccc2-c2ccc(-c3ncco3)cc2CN(C)C(=O)CC(C)(C)C)c1C [Edonentan, N-[[2′-[[(4,5-dimethyl-3-isoxazolyl)amino]sulfonyl]-4-(2-oxazolyl)[1,1′-biphenyl]-2-yl]methyl]-N,3,3-trimethylbutanamide]
t1/2: longer
